The source made the active and inactive calls. The calls are words filed in the database; no cut-off is given here.
Assays:
[1] = target: T1, Suppressor of tumorigenicity 14 protein (Homo sapiens, UniProt Q9Y5Y6); experiment: (§1) Binding affinity to N-terminal MRGS(His)6GSDDDDK-tagged Matriptase (unknown origin) expressed in Escherichia coli assessed as inhibition constant using Mes-DArg-Pro-Arg-AMC as substrate
T1 sequence (Q9Y5Y6 whole entry): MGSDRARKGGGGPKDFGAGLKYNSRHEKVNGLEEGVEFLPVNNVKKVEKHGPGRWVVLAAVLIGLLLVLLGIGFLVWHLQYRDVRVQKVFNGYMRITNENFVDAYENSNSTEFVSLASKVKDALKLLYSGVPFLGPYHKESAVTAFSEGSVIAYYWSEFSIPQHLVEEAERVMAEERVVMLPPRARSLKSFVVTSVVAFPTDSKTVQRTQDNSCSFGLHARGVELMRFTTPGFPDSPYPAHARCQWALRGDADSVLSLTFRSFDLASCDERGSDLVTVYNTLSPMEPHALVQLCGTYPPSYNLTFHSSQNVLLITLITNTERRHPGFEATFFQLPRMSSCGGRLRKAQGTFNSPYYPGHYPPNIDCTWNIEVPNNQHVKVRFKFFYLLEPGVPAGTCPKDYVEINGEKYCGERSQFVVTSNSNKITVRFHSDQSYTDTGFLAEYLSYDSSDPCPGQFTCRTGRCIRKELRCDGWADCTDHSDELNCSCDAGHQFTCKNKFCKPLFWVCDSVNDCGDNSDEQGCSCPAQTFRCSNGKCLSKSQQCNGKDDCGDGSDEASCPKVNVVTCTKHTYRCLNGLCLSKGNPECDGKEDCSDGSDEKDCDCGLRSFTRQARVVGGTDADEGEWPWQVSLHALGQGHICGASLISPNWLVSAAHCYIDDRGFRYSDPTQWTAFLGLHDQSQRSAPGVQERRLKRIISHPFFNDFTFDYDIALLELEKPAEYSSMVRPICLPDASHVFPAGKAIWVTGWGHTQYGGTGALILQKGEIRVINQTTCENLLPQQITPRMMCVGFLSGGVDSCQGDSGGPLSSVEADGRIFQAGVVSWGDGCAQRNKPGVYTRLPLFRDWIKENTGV

Prothrombin = Prothrombin (Bos taurus, UniProt P00735); experiment: Binding affinity to bovine thrombin assessed as inhibition constant using tosyl-Gly-Pro-Arg-AMC as substrate
Coagulation factor X = Coagulation factor X (Homo sapiens, UniProt P00742); experiment: Binding affinity to FXa (unknown origin) using Mes-DArg-Pro-Arg-AMC as substrate
Sequence of Coagulation factor X (P00742 41-179 limits assumed): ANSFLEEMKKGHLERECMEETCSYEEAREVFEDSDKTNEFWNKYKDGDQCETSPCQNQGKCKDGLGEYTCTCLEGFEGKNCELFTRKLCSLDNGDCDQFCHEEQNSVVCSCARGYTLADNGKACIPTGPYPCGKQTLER
Sequence of Coagulation factor X (P00742 235-488 limits assumed): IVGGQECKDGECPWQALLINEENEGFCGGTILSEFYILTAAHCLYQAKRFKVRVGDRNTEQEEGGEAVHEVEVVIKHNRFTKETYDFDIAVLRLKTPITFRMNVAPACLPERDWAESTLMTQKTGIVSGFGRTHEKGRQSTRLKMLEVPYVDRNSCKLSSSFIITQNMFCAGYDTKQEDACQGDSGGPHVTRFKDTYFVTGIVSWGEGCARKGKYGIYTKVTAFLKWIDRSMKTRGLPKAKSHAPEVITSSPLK

[2] = as §1, with “Selectivity ratio of Ki for binding affinity to bovine thrombin assessed as inhibition constant using tosyl-Gly-Pro-Arg-AMC as substrate to Ki for binding” for “Binding”; details: Homo sapiens
Homo sapiens = species on record: Homo sapiens; experiment: Selectivity ratio of Ki for binding affinity to FXa (unknown origin) using Mes-DArg-Pro-Arg-AMC as substrate to Ki for binding affinity to N-terminal MRGS(His)6GSDDDDK-tagged Matriptase (unknown origin ) expressed in Escherichia coli assessed as inhibition constant using Mes-DArg-Pro-Arg-AMC as substrate
Influenza A virus [3] = experiment: Antiviral activity against Influenza A virus H9N2 infected in MDCK-II cells assessed as inhibition of viral replication at 5 uM measured after 24 hrs by immunostaining based assay; type: functional, organism-based
[4] = Binding affinity to bovine trypsin assessed as inhibition constant […]; design: species or system Bos taurus
MDCK-II = experiment: Cytotoxicity against MDCK-II cells assessed as reduction in cell viability at 50 uM measured for 24 hrs by Celltiter-glo luminescent assay; type: toxicity, cell-based, Canis lupus familiaris; details: dog
Influenza A virus [5] = experiment: Antiviral activity against Influenza A virus H9N2 infected in MDCK-II cells assessed as inhibition of viral replication measured after 24 hrs by immunostaining based assay; type: functional, organism-based; details: DDE = dose-dependent effect
Influenza A virus [6] = experiment: Antiviral activity against Influenza A virus H9N2 infected in MDCK-II cells assessed as reduction in comet-shaped foci at 50 uM measured after 24 hrs by immunostaining based assay; type: functional, organism-based
Influenza A virus [7] = experiment: Antiviral activity against Influenza A virus H9N2 infected in MDCK-II cells assessed as reduction in comet-shaped foci at 20 uM measured after 24 hrs by immunostaining based assay; type: functional, organism-based
Influenza A virus [8] = experiment: Antiviral activity against Influenza A virus H9N2 infected in MDCK-II cells assessed as reduction in viral titer in supernatants at 5 to 50 uM measured after 24 hrs by plaque assay; type: functional, organism-based; details: dose 5-50 µM

SMILES | Ki [1] [µM] | Ki (Prothrombin) [µM] | Ki (Coagulation factor X) [µM] | Ratio Ki [2] | Ratio Ki (Homo sapiens) | Activity (Influenza A virus [3]) | Ki [4] [µM] | Activity (MDCK-II) | Activity (Influenza A virus [5]) | Activity (Influenza A virus [6]) | Activity (Influenza A virus [7]) | Activity (Influenza A virus [8])
CC(C)(C)NC(=O)NC1CCN(C(=O)[C@H](Cc2cccc(C(=N)N)c2)NS(=O)(=O)c2cccc(-c3ccc(F)c(CO)c3)c2)CC1 | 0.05 | 1.07 | 0.051 | 21 | 1 | – | – | – | – | – | – | –
CC(C)(C)NC(=O)NC1CCN(C(=O)[C@H](Cc2cccc(C(=N)N)c2)NS(=O)(=O)c2cccc(-c3cc(F)c(CO)c(F)c3)c2)CC1 | 0.024 | 11.8 | 0.504 | 492 | 21 | – | – | – | – | – | – | –
COc1ccc(-c2cccc(S(=O)(=O)N[C@@H](Cc3cccc(C(=N)N)c3)C(=O)N3CCN(C(=O)OC(C)(C)C)CC3)c2)c(OC)c1 | 0.017 | 0.012 | 0.052 | 0.7 | 3.1 | – | – | – | – | – | – | –
CNC(=O)NC1CCN(C(=O)[C@H](Cc2cccc(C(=N)N)c2)NS(=O)(=O)c2cccc(-c3ccc(OC)cc3OC)c2)CC1 | 0.026 | 0.089 | 0.023 | 3.4 | 0.9 | – | – | – | – | – | – | –
COc1ccc(-c2cccc(S(=O)(=O)N[C@@H](Cc3cccc(C(=N)N)c3)C(=O)N3CCN(C(=O)C(C)(C)C)CC3)c2)c(OC)c1 | 0.143 | 0.042 | 0.116 | 0.3 | 0.8 | – | – | – | – | – | – | –
CC(C)(C)NC(=O)NC1CCN(C(=O)[C@H](Cc2cccc(C(=N)N)c2)NS(=O)(=O)c2cccc(-c3ccc(COC(C)(C)C)cc3)c2)CC1 | 0.171 | 2.52 | 0.529 | 15 | 3.1 | – | – | – | – | – | – | –
CC(C)(C)NC(=O)NC1CCN(C(=O)[C@H](Cc2cccc(C(=N)N)c2)NS(=O)(=O)c2cccc(-c3cccc(C(=N)N)c3)c2)CC1 | 0.0007 | 2.55 | 0.009 | 3640 | 13 | Active | 0.005 | Toxic | Dde | Active | Active | Active
COc1ccc(-c2cccc(S(=O)(=O)N[C@@H](Cc3cccc(C(=N)N)c3)C(=O)N3CCN(C(=O)NC4CCCCC4)CC3)c2)c(OC)c1 | 0.038 | 0.912 | 0.01 | 24 | 0.3 | – | – | Toxic | Dde | Active | Active | Active
CC(C)(C)NC(=O)NC1CCN(C(=O)[C@H](Cc2cccc(C(=N)N)c2)NS(=O)(=O)c2cccc(-c3ccc(C(=N)N)cc3)c2)CC1 | 0.0008 | 0.449 | 0.084 | 561 | 105 | – | – | – | – | – | – | –
COc1ccc(-c2cccc(S(=O)(=O)N[C@@H](Cc3cccc(C(=N)N)c3)C(=O)N3CCN(C(=O)C4CCCCC4)CC3)c2)c(OC)c1 | 0.043 | 0.414 | 0.095 | 10 | 2.2 | – | – | – | – | – | – | –
CC(C)(C)NC(=O)NC1CCN(C(=O)[C@H](Cc2cccc(C(=N)N)c2)NS(=O)(=O)c2cccc(-c3cccc(CO)c3)c2)CC1 | 0.059 | 0.49 | 0.033 | 8.3 | 0.6 | – | – | – | – | – | – | –
COc1ccc(-c2cccc(S(=O)(=O)N[C@@H](Cc3cccc(C(=N)N)c3)C(=O)N3CCC(NC(=O)NC(C)(C)C)CC3)c2)c(OC)c1 | 0.003 | 1.8 | 0.002 | 600 | 0.7 | – | – | Toxic | Dde | Active | Active | Active
CC(C)(C)NC(=O)NC1CCN(C(=O)[C@H](Cc2cccc(C(=N)N)c2)NS(=O)(=O)c2cccc(-c3ccc(Cl)cc3Cl)c2)CC1 | 0.005 | 0.174 | 0.004 | 35 | 0.8 | – | – | – | – | – | – | –
Cc1ccc(-c2cccc(S(=O)(=O)N[C@@H](Cc3cccc(C(=N)N)c3)C(=O)N3CCC(NC(=O)NC(C)(C)C)CC3)c2)cc1 | 0.007 | 0.412 | 0.028 | 59 | 4 | – | – | – | – | – | – | –
CC(C)(C)NC(=O)NC1CCN(C(=O)[C@H](Cc2cccc(C(=N)N)c2)NS(=O)(=O)c2cccc(-c3ccc(N)nc3)c2)CC1 | 0.003 | 4.26 | 0.004 | 1420 | – | – | – | – | – | – | – | –
COc1ccc(-c2cccc(S(=O)(=O)N[C@@H](Cc3cccc(C(=N)N)c3)C(=O)N3CCC(NC(=O)NC(C)C)CC3)c2)c(OC)c1 | 0.008 | 0.228 | 0.003 | 29 | 0.4 | – | – | – | – | – | – | –
CC(C)(C)NC(=O)NC1CCN(C(=O)[C@H](Cc2cccc(C(=N)N)c2)NS(=O)(=O)c2cccc(-c3ccc(CO)cc3)c2)CC1 | 0.011 | 12 | 0.06 | 1090 | 5.5 | – | – | – | – | – | – | –
COCc1ccc(-c2cccc(S(=O)(=O)N[C@@H](Cc3cccc(C(=N)N)c3)C(=O)N3CCC(NC(=O)NC(C)(C)C)CC3)c2)cc1 | 0.009 | 1.79 | 0.179 | 199 | 20 | – | – | – | – | – | – | –
CC(C)(C)NC(=O)NC1CCN(C(=O)[C@H](Cc2cccc(C(=N)N)c2)NS(=O)(=O)c2cccc(-c3ccc(CN)cc3)c2)CC1 | 0.004 | 0.553 | 0.01 | 138 | 2.5 | – | – | – | – | – | – | –
CC(C)(C)NC(=O)NC1CCN(C(=O)[C@H](Cc2cccc(C(=N)N)c2)NS(=O)(=O)c2cccc(-c3cccc(CN)c3)c2)CC1 | 0.001 | 1.32 | 0.0001 | 1320 | 0.1 | – | – | – | – | – | – | –
CC(C)(C)NC(=O)NC1CCN(C(=O)[C@H](Cc2cccc(C(=N)N)c2)NS(=O)(=O)c2cccc(-c3ccc(CO)c(F)c3)c2)CC1 | 0.015 | 23 | 0.19 | 1530 | 13 | – | 0.0006 | Toxic | Dde | Active | Active | Active
COc1ccc(-c2cccc(S(=O)(=O)N[C@@H](Cc3cccc(C(=N)N)c3)C(=O)N3CCN(C(=O)NC(C)(C)C)CC3)c2)c(OC)c1 | 0.104 | 0.073 | 0.013 | 0.7 | 0.1 | – | – | – | – | – | – | –
CC(C)Oc1ccc(-c2cccc(S(=O)(=O)N[C@@H](Cc3cccc(C(=N)N)c3)C(=O)N3CCC(NC(=O)NC(C)(C)C)CC3)c2)cc1 | 0.058 | 5.14 | 0.439 | 89 | 9.3 | – | – | – | – | – | – | –

From ChEMBL document CHEMBL5113419
